Like-named read-outs stand apart in the source and are kept apart here. Marks after values point to notes of the source that are not given here.
Assays:
[1] = molecular target: T1, recombinant, full length AKT1/PKBα (Homo sapiens, UniProt P31749); experiment: In vitro inhibition of recombinant AKT (GSK-3 fusion protein phosphorylation); format: biochemical; conditions: 5 μM, pre-incubated two hours on ice
T1 construct: active, recombinant, full length AKT1/PKBα protein; purchased Upstate Biotechnology, Lake Placid, N.Y
T1 sequence (P31749 whole entry, the tested form may be a part): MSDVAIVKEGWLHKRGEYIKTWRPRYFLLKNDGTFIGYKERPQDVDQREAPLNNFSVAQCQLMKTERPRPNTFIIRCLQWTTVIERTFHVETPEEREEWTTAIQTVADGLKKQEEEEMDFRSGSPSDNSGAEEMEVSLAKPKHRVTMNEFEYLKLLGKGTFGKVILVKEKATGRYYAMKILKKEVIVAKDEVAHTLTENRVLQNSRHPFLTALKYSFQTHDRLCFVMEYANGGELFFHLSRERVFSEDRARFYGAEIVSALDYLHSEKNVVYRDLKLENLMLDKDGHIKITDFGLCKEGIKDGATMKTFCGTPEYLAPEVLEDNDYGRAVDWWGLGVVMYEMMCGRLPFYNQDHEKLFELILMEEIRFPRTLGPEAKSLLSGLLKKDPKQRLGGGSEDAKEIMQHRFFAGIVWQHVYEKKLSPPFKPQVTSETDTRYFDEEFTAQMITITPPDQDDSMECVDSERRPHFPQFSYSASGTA
Procedure: In vitro inhibition of recombinant AKT. In vitro kinase assays can be performed using an active, recombinant, full length AKT1/PKBα protein (available from Upstate Biotechnology, Lake Placid, N.Y.) or with an active, recombinant AKT1/PKBα protein, referred to herein as AKT1ΔPH, that lacks the pleckstrin homology domain (also available from Upstate Biotechnology). 10 ng of the recombinant enzyme in 25 μl 1× kinase buffer (25 mM Tris, pH 7.5; 5 mM β-glycerol phosphate; 2 mM dithiothreitol; 0.1 mM Na3VO4; and 10 mM MgCl2) is mixed with 2.5 μl of DMSO and a test compound (5 μM). […] After incubating the suspensions at 30° C. for 30 minutes, the reaction can be terminated by the addition of 3×SDS sample buffer (187.5 mM Tris-HCl, pH 6.8; 6% SDS; 30% glycerol; 150 mM dithiothreitol; and 0.03% bromophenol blue). The samples are then boiled for five minutes. The proteins can be separated on a 12% SDS polyacrylamide gel, and subsequently transferred to a nitrocellulose membrane. The membranes are preferably incubated with rabbit polyclonal anti-phospho-GSK-3α/β (Ser21/9) antibody (available from Cell Signaling Technology, Beverly, Mass., catalog # 9331).
The phosphorylation status of GSK-3 protein can also be used to study the AKT inhibitory activity of phenoxazines (including the phenoxazine compounds listed in Table I above) and acridone compounds. […]

Rh1 cells [2] = experiment: Determination of apoptosis (Annexin V-FITC/propidium iodide flow cytometry), Rh1 cells; conditions: Rh1, 6.5 μM, four days, n = 3
Procedure: (§1) Determination of apoptosis. An ApoAlert™ Annexin V-FITC Apoptosis kit (available from Clontech, Palo Alto, Calif.) can be used to evaluate the extent of apoptosis within cell populations. Cells (Rh1: 350,000 per 75-cm^2 flask; Rh18: 800,000 per 75-cm^2 flask; or Rh30: 500,000 per 75-cm^2 flask) are preferably grown overnight in complete medium. On day 1, cells are treated with DMSO (0.1%; vehicle control) or with a test compound (e.g., a phenoxazine or acridone compound). After 4 days, the cells are trypsinized, washed with PBS, and resuspended in 200 μl of binding buffer. Cells are then incubated with 10 μl of annexin V-FITC (final concentration, 1 μg/ml) and 500 ng of propidium iodide in a final volume of 410 μl. Cells are preferably incubated at room temperature in the dark for ten minutes before flow cytometric analysis with an FACSCalibur™ Flow Cytometry System (Becton Dickinson, San Jose, Calif.).
(§2) For instance, Rh1, Rh18 and/or Rh30 cells can be grown in complete medium with 0.1% DMSO (as a negative control) or with one or more test compounds, e.g., any of the phenoxazine compounds listed in Table I, above, including but not limited to the compounds 10B, 11B, 13B, 14B or 15B. […] Cells are then harvested, and the extent of apoptosis evaluated, e.g., by an ApoAlert™ (Clontech, Palo Alto, Calif.) flow cytometric assay.

endogenous AKT = experiment: Cellular AKT kinase activity: AKT immunoprecipitated from treated Rh1 cells phosphorylates GSK-3 fusion protein; format: cell-based, human; conditions: 5 μM, 1 hour, IGF-I 10 minutes
Procedure: Determination of cellular AKT kinase activity. AKT kinase activity can be quantitated using a commercial assay kit (available from Cell Signaling Technology, Beverly, Mass.) according to the manufacturer's instructions. Specifically, Rh1 cells are seeded in serum-free medium at a density of 4×10^6 per 10-cm plate. […] Cells are then stimulated with ±IGF-I ([…]) for 10 minutes and washed once with ice-cold PBS. Cells are lysed in 200 μl of ice-cold 1× lysis buffer (20 mM Tris, pH 7.5; 150 mM NaCl; 1 mM EDTA; 1 mM EGTA; 1% Triton X-100; 2.5 mM sodium pyrophosphate; 1 mM β-glycerol phosphate; 1 mM Na3VO4; 1 mM phenylmethylsulfonyl fluoride; and 1 mM leupeptin) and incubated for 10 minutes on ice. The cell lysates are then centrifuged for 10 minutes at 17,500×g at 4° C. Volumes of the supernatants are preferably adjusted so that each sample contains an equal amount of protein (150 μg). The supernatants are then incubated with immobilized (cross-linked) anti-AKT antibody (Cell Signaling Technology, Beverly, Mass., catalog # 9279) for 3 hours at 4° C. […]
To determine directly whether compounds, such as the phenoxazine compounds in Table I, inhibit AKT activation in cells, the activation of AKT by IGF-I can be evaluated by assessing either phosphorylation of AKT (Ser473), or the in vitro kinase activity of protein immunoprecipitated by anti-AKT antibody. […]

Rh1 cells [3] = conditions: 6.5 µM
Procedure: as §1, §2

Rh30 cells = conditions: 7.5 µM
Procedure: as §1, §2

Rh18 cells = conditions: 7.5 µM
Procedure: as §1, §2

| Compound | inhibition of GSK-3 phosphorylation by recombinant AKT [1] | Percentage of cells ± SD, Viable (Rh1 cells [2]) | phosphorylation of GSK-3 fusion protein by AKT immunoprecipitated from treated cells (endogenous AKT) | Percentage of cells ± SD, Viable (Rh1 cells [3]) | Percentage of cells ± SD, Viable (Rh30 cells) | Percentage of cells ± SD, Viable (Rh18 cells) |
| --- | --- | --- | --- | --- | --- | --- |
| CCN(CC)CCCCN1c2ccccc2Oc2ccc(Cl)cc21 [Compound 10B, 10-[4′-(N-diethylamino)butyl]-2-chlorophenoxazine] | at least nearly complete | 47.70 ± 7.90% | completely inhibited |  |  |  |
| 10-[4′-[(β-hydroxyethyl)piperazino]butyl]-2-chlorophenoxazine [Compound 15B] | completely blocked |  | completely inhibited | 23.33 ± 8.66^d % | 11.00 ± 2.16^d % | 67.00 ± 7.48% |

— patent US20060241108A1, “Substituted phenoxazines and acridones as inhibitors of AKT” (St. Jude Children's Research Hospital, priority 2005, published 2006)
